In patent US20240335431A1, “1-H-PYRROLO[2,3-c]PYRIDINE COMPOUNDS” (Acerta Pharma B.V., priority 2023, published 2024):

What was measured:
hERG = hERG (Homo sapiens (Human), UniProt Q12809); assay: hERG assay 1 (standard), SyncroPatch 384PE; assay type: cell-based; details: CHO cells, room temperature, up to 40 uM
Method in brief: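 Automated patch clamp on hERG-expressing CHO-K1 cells at room temperature, +60/−40 mV protocol every 15 s. Six-point cumulative concentrations 139 nM to 40 uM (0.33% DMSO final); IC50 from one-site fit of % inhibition. Wells required ≥30 MegaOhm seal, current >0.2 nA, Z prime >0.4.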

HEL cells = assay: Proliferation assay, HEL control cell line (CellTiter-Glo, 7 days); assay type: cell-based, human; details: Homo sapiens, HEL, 168 h
Method in brief: (§1)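 Cells seeded at 125 (MOLM-13), 300 (MV4;11), 75 (OCI-AML3) or 200 (HEL) per well were exposed to 3.16-fold compound dilutions (0.1% DMSO) for 7 days at 37° C. Viability by CellTiter-Glo luminescence, normalized to DMSO (100%) and day-0 plate (0%); IC50 from one-site dose-response fit.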

MV4;11 cells = assay: Proliferation assay, MV4;11 (CellTiter-Glo, 7 days); assay type: cell-based, human; details: Homo sapiens, MV4-11, 168 h, read-out: MV-4-11 IC50
Method in brief: as §1

Chain of hERG (Q12809 whole entry): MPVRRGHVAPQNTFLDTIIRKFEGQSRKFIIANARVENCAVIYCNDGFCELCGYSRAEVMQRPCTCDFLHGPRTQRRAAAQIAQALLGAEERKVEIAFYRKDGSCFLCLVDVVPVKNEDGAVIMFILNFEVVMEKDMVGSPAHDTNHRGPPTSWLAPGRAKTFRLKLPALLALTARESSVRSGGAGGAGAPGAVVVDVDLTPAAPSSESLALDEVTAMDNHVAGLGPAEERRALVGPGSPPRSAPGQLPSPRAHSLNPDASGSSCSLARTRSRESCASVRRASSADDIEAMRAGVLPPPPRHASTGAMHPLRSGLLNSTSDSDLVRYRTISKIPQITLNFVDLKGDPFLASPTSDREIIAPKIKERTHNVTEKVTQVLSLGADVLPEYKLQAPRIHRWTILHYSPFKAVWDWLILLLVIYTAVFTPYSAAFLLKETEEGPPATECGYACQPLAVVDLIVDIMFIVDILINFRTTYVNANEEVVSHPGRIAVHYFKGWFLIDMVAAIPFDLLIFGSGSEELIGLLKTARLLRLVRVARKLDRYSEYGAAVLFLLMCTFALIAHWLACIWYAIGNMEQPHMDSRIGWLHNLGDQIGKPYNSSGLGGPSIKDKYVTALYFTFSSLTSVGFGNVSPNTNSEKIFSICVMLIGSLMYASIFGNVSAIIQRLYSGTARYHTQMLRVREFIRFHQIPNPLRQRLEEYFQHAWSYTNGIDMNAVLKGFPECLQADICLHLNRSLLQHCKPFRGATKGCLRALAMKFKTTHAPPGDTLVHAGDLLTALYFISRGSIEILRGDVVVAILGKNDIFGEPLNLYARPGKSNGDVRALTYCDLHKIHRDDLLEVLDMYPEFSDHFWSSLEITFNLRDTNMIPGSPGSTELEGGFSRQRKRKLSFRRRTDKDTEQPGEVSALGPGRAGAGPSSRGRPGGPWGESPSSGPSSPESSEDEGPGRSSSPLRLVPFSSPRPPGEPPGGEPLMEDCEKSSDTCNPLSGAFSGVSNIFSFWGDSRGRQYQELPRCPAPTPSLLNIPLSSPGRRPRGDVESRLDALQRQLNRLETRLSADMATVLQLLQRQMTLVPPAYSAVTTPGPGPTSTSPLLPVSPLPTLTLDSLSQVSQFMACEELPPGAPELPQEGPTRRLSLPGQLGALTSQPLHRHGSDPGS

C[C@@H]1COC[C@@H](C)N1C(=O)c1cc(F)ccc1-n1cc(C(=O)C2CCN(C(=O)[C@H]3N[C@@H]4CC[C@H]3C4)CC2)c2ccncc21 [Example 34, (1-((1R,3S,4S)-2-Azabicyclo[2.2.1]heptane-3-carbonyl)piperidin-4-yl)(1-(2-((3R,5R)-3,5-dimethylmorpholine-4-carbonyl)-4-fluorophenyl)-1H-pyrrolo[2,3-c]pyridin-3-yl)methanone]
IC50 (hERG): > 40 µM
IC50 (HEL cells): > 10 µM
IC50 (MV4;11 cells): 0.039 µM

CC(C)N(C(=O)c1cc(F)ccc1-n1cc(C(=O)C2CN(C(=O)[C@H]3NC4CCC3CC4)C2)c2ccncc21)C(C)C [Example 6, (S)-2-(3-(1-(2-Azabicyclo[2.2.2]octane-3-carbonyl)azetidine-3-carbonyl)-1H-pyrrolo[2,3-c]pyridin-1-yl)-5-fluoro-N,N-diisopropylbenzamide]
IC50 (HEL cells): > 10 µM
IC50 (MV4;11 cells): 0.046 µM

CCN(C(=O)c1cc(F)ccc1-n1c(C)c(C(=O)[C@@H]2CCN(C(=O)[C@@H]3CC[C@H](C)N3)[C@@H](C)C2)c2ccncc21)C(C)C (stereo in doubt) [Example 63, N-Ethyl-5-fluoro-N-isopropyl-2-(2-methyl-3-((2S,4RS)-2-methyl-1-((2S,5S)-5-methylpyrrolidine-2-carbonyl)piperidine-4-carbonyl)-1H-pyrrolo[2,3-c]pyridine-1-yl)benzamide]
IC50 (hERG): > 40 µM
IC50 (HEL cells): > 10 µM

Cc1c(C(=O)[C@@H]2CCN(C(=O)[C@@H]3CC[C@H](C)N3)[C@@H](C)C2)c2ccncc2n1-c1ccc(F)cc1C(=O)N(C(C)C)C(C)C (stereo in doubt) [Example 62, 5-Fluoro-N,N-diisopropyl-2-(2-methyl-3-((2S,4RS)-2-methyl-1-((2S,5S)-5-methylpyrrolidine-2-carbonyl)piperidine-4-carbonyl)-1H-pyrrolo[2,3-c]pyridin-1-yl)benzamide]
IC50 (hERG): > 40 µM
IC50 (HEL cells): > 10 µM

C[C@@H]1CCC[C@H](C)N1C(=O)c1cc(F)ccc1-n1cc(C(=O)C2CCN(C(=O)[C@H]3N[C@@H]4CC[C@H]3C4)CC2)c2ccncc21 [Example 33, (1-((1R,3S,4S)-2-Azabicyclo[2.2.1]heptane-3-carbonyl)piperidin-4-yl)(1-(2-((2R,6S)-2,6-dimethylpiperidine-1-carbonyl)-4-fluorophenyl)-1H-pyrrolo[2,3-c]pyridin-3-yl)methanone]
IC50 (hERG): > 40 µM
IC50 (HEL cells): > 10 µM
IC50 (MV4;11 cells): 0.103 µM

CCN(C(=O)c1cc(F)ccc1-n1cc(C(=O)C2CN(C(=O)[C@H]3N[C@@H]4CC[C@H]3C4)C2)c2ccncc21)C(C)C [Example 8, 2-(3-(1-((1R,3S,4S)-2-Azabicyclo[2.2.1]heptane-3-carbonyl)azetidine-3-carbonyl)-1H-pyrrolo[2,3-c]pyridin-1-yl)-N-ethyl-5-fluoro-N-isopropylbenzamide]
IC50 (hERG): > 40 µM
IC50 (HEL cells): > 10 µM
IC50 (MV4;11 cells): 0.1 µM

Cc1c(C(=O)C2CCN(C(=O)[C@H]3NC[C@@H]4C[C@@H]43)CC2)c2ccncc2n1-c1ccc(F)cc1C(=O)N(CC(F)(F)F)C(C)C (single isomer, unassigned) [Example 51-1]
IC50 (hERG): > 40 µM
IC50 (HEL cells): > 10 µM

CCN(C(=O)c1cc(F)ccc1-n1c(C)c(C(=O)[C@@H]2CCN(C(=O)[C@@H]3CC[C@@H](C)N3)[C@@H](C)C2)c2ccncc21)C(C)C (stereo in doubt) [Example 65, N-Ethyl-5-fluoro-N-isopropyl-2-(2-methyl-3-((2S,4RS)-2-methyl-1-((2S,5R)-5-methylpyrrolidine-2-carbonyl)piperidine-4-carbonyl)-1H-pyrrolo[2,3-c]pyridin-1-yl)benzamide]
IC50 (hERG): > 40 µM
IC50 (HEL cells): > 10 µM

Cc1c(C(=O)[C@@H]2CCN(C(=O)[C@@H]3CC[C@@H](C)N3)[C@@H](C)C2)c2ccncc2n1-c1ccc(F)cc1C(=O)N(C(C)C)C(C)C (stereo in doubt) [Example 64, 5-Fluoro-N,N-diisopropyl-2-(2-methyl-3-((2S,4RS)-2-methyl-1-((2S,5R)-5-methylpyrrolidine-2-carbonyl)piperidine-4-carbonyl)-1H-pyrrolo[2,3-c]pyridin-1-yl)benzamide]
IC50 (hERG): 32.7 µM
IC50 (HEL cells): > 10 µM
